Values of other authors in patent publication US20250278807A1, “MODERN MONETARY THEORY AND TRANSLATIONAL SCIENTIFIC RESEARCH” (priority 2025, published 2025).
Where two headings read alike, the source gives them in different places. Blank lines part the entries; values can stand above or below the compound they belong to.

Columns and labels:
[1] = system: wide variety of cancer cells; settings: in vivo
[2] = system: wide variety of cancer cells; settings: in vitro
[3] = in vivo
[4] = system: melanoma cell
[5] = system: melanoma tumors
[6] = system: other malignant cell cultures; settings: in vitro
[7] = system: blood glucose
[8] = in vivo; remark: listed apart in the source
[9] = biological target: T1, beta amyloid peptide (1-40) aggregates (Homo sapiens, UniProt P05067); settings: in vitro, aggregates formed with calcium ions; loss of Thioflavin T fluorescence
T1 construct: beta amyloid peptide (1-40)
T1 sequence (P05067 672-711 limits assumed): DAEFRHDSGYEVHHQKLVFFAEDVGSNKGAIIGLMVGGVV

[10] = system: thoracic atheroma; settings: administered intraperitoneally, cholesterol-fed rabbits
[11] = system: chronic lumbar radicular pain; settings: phase II trials, versus placebo

Compound: O=CC[C@@H](O)[C@H](O)[C@H](O)CO [2DG, 2-Deoxy-D-Glucose]
inhibition of growth of cancer cells [1]: inhibit growth
inhibition of growth of cancer cells [2]: inhibit growth

excretion after infusion [3]: excreted unchanged in the urine
Compound: O=[14CH][C@H](O)[C@H](O)[C@H](O)CO [D-ribose-1-C^14]

Compound: C[C@@H](O)C(=O)O[C@H](C)C(=O)O [DLAD, D-Lactic Acid Dimer]
inhibition of melanoma cell proliferation ([4]; compared to L-lactic acid dimer (P<0.0001)): conclusively shown
efficacy at pH 7 ([4]; pH 7): lost efficacy
inhibition of growth of melanoma tumors ([5]; in vivo): inhibit growth
tumoricidal activity ([5]; intralesional application): dose response tumoricidal activity
inhibition of growth of cancer cells [1]: inhibit growth
inhibition of growth of cancer cells [2]: inhibit growth
inhibition of growth of other malignant cell cultures [6]: inhibit growth

Compound: NCCCC[C@H](N)C(=O)O [L-lysine]
effect on absorption of glucose ([7]; concomitant administration of glucose with L-lysine): decrease the absorption of glucose
oral bioavailability ([7]; in vivo, po): well established
effect on blood glucose ([7]; oral administration): lower blood glucose

oral bioavailability [8]: orally bioavailable
Compound: CCN(CC)CCOC(=O)c1ccc(N)cc1 [Procaine]

Compound: O=C(O)CC(O)(CC(=O)O)C(=O)O [citrate]
dissolution of beta amyloid aggregates [9]: can be dissolved

Compound: O=C([O-])CC(O)(CC(=O)[O-])C(=O)[O-].[Na+].[Na+].[Na+] [sodium citrate]
effect on thoracic atheroma [10]: decreased thoracic atheroma

Compound: COc1c([C@H]2[C@H](C(=O)Nc3ccnc(C(N)=O)c3)O[C@@](C)(C(F)(F)F)[C@H]2C)ccc(F)c1F [suzetrigine]
efficacy in chronic lumbar radicular pain [11]: no better efficacy than placebo

Compound: Choline citrate
effect on thoracic atheroma [10]: decreased thoracic atheroma
